Literature values in patent US20210061712A1, “COMPOSITE STRUCTURAL MATERIAL COMPOSITIONS RESISTANT TO BIODEGRADATION” (The University of British Columbia, priority 2018, published 2021).
Where two headings read alike, the source gives them in different places.

Key:
[1] = tested on: Desulfovibrio desulfricans strain; details: pipe's internal wall coated with the oxide in epoxy

[Na+].[Na+].[O]=[W](=[O])([O-])[O-] [sodium tungstate]
growth of A. thiooxidans cells (A. Thiooxidans cells): completely inhibits the growth

silver oxide
bacterial corrosion of concrete pipe [1]: reduce the bacterial corrosion

O=CCCCC=O [glutaraldehyde]
activity of SRB species (SRB species; 10 mg/L): reduced

[Cu+2] [Cu]
activity of SRB species (SRB species; 20 mg/L): reduced

[Zn+2] [Zn]
activity of SRB species (SRB species; 20 mg/L): reduced
